Literature values in patent US12144796B2, “Formulations for treating cluster symptoms associated with autism spectrum disorder” (Ilera Therapeutics LLC, priority 2019, dated 2024).

- solubility in water: insoluble in water
Compound: CC12CCC(CC1)C(C)(C)O2 [Eucalyptol, 1,3,3-trimethyl-2-oxabicyclo[2.2.2]octane]
